Measurements as given in patent publication US7361633B2, “Screening method and anti-tumor drug candidate obtained therefrom” (Ardana Bioscience Limited, priority 2002, dated 2008).
Entries after “also recorded” stand apart in the source; their conditions may differ.

Experiments:
p38α = assay: Phosphorylation of immunoprecipitated myc-p38α in BPH-1 cells; type: cell-based, human; conditions: for activation (phosphorylation) of myc-p38α / effect of PTX pre-exposure on p38α activation: BPH-1 cells; for activation (phosphorylation) of myc-p38α: 100 nM; for effect of PTX pre-exposure on p38α activation: PTX 16 h 200 ng/ml
Procedure: The activation of two other forms of mitogen-activated protein kinase (MAPK) was studied in JEG-3 and BPH-1 cells by overexpressing myc-tagged constructs of JNK2 or p38α. Immunoprecipitation of these constructs after GnRHR-ligand stimulation of either cell line allowed the degree of kinase activation to be assessed using antisera specific for the active, phosphorylated, form of the kinase. […] In both panel a and b, the dose of GnRH I employed was 100 nM. The respective histograms in each panel represent the mean±s.e. mean of three experimental replicate time courses.
The histogram below depicts the mean±s.e. mean of three experimental replicates of the above western blot. […] The histograin below depicts the mean±s.e. mean of three experimental replicates of the above western blot.
Stimulation of JNK in JEG-3 cells and p38 in BPH-1 cells and its sensitivity to pre-exposure to PTX was assessed by measuring the degree of activating phosphorylation of immunoprecipitated myc-JNK2 or myc-p38α. […] The histograms in panels b and c depict the mean±s.e. mean of three experimental replicates of the above western blot (panel a) experiments. Panel d depicts an identical experiment to that in panel a except that it is the phosphorylation status of immunoprecipitated myc-p38α that is being measured. […] The histograms in panels e and f depict the mean±s.e. mean of three experimental replicates of the above western blot (panel d) experiments.
To further investigate the validity of the observed SAPK activation we transfected the tumour cell lines with myc-tagged JNK2 or p38α MAPK isoforms, stimulated the cells with GnRH and then immunoprecipitated with anti-myc sera and western blotted the immunoprecipitates for total JNK/p38 protein and active JNK/p38.

[1] = tested on: human benign prostate hyperplastic (BPH-1) cells; assay: Anti-proliferative effect on BPH-1 cells, viable cell count after 5 days; type: cell-based; conditions: 5 days continuous treatment, trypan blue exclusion
Procedure: Low cell density BPH-1 cell subcultures were treated for 5 days continuously with the indicated doses of GnRH I (a), GnRH II (b), Ant 135-18 (c) or Ant 135-25 (d) added directly to RPMI 1640 medium supplemented with 10% FCS, glutamine and penicillin/streptomycin. Ligands were replenished every 24 h. At the end of the stimulation period cells were removed form the growth plates by trypsin and mixed with trypan blue dye (enters non-viable cells). Only viable cells were therefore counted using a haemocytometer in quadruplicate for each ligand dose. The bars in each histogram represent the mean±s.e. mean of n=4 experiments.
Each cell type was plated at an initial minimal confluency (10-20%) to allow for 5 days of normal continual cell growth that would not result in 100% cell confluency by day 5. Each ligand was incubated, in triplicate for every experimental concentration, with the cell monolayers for five days with replacement of the ligand every 12 h. At the end of the stimulation period the number of viable cells was estimated by their capacity to prevent uptake of Trypan Blue stain.
Employing an identical growth and stimulation methodology to that described in the previous paragraph and in FIG. 1 we exposed the hyperplastic cell line, BPH-1, to the same panel of GnRH ligands and antagonistic analogues (FIG. 2). Reminiscent of FIG. 1 both endogenous GnRH agonists exert a similar mode of action with respect to their dose-dependent inhibition of BPH-1 cell growth over the five day stimulation period.

Gαi-type G protein = assay: Inhibition of forskolin-stimulated cAMP accumulation in BPH-1 cells; type: cell-based, human; conditions: for FSK-stimulated intracellular cAMP accumulation after ligand pre-exposure: 100 nM, pre-exposure 10, 30, 60 minutes; for effect of PTX on ligand-mediated inhibition of FSK-stimulated cAMP accumulation: 60 minute pre-exposure, PTX 200 ng/ml 16 h
Source text: In both BPH-1 and JEG-3 cells GnRH and Ant 135-25 can antagonize forskolin (FSK) stimulated intracellular cAMP accumulation. Panels a and b respectively depict the effects of FSK, GnRH I and Ant 135-25 upon intracellular levels of cAMP in BPH-1 and JEG-3 cells measured using a calorimetric Biomol cAMP assay kit. […] Each histogram in panels a to d depicts the mean±s.e. mean of three to four experimental replicates of the cAMP accumulation assay.
Thus we noted that when cyclic adenosine monophosphate levels (cAMP) were measured using a commercially available […] assay system (Biomol) the ability of forskolin (1 μM in JEG-3 and 3 μM in BPH-1, sufficient to give a 50% Rmax response in each case) was blunted with extended cellular pre-treatment times (10 to 60 minutes) with either 100 nM GnRH I or Ant 135-25 (FIG. 9, panel a-BPH, panel b-JEG). […] Therefore it appears that both ligands can efficiently activate the adenylate cyclase inhibitory activity of Gαi in both cell models tested.

Type I GnRH receptor = molecular target: T1, Type I GnRH receptor (Rattus norvegicus, UniProt P30969); assay: Inositol phosphate accumulation in SCL60 (HEK293) cells; type: cell-based; conditions: GnRH I 10 nM
T1 construct: expressed in transfected cells
T1 sequence (P30969 1-327): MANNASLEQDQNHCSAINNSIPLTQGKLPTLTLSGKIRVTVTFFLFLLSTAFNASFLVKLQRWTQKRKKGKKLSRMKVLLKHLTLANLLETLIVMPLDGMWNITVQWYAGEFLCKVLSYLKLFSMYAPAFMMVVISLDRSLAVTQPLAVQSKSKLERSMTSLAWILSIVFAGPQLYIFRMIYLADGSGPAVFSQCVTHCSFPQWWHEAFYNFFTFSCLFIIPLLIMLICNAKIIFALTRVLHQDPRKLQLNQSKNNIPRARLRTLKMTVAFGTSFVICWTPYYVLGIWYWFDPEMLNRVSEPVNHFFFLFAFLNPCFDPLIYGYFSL
Procedure: The histograms in panels a and b represent inositol phosphate accumulation data from HEK293 cells stably expressing the Type I GnRH receptor only (SCL60). […] In panels c and d, the liberated inositol phosphates generated were measured in the proto-gonadotrope cells (αT4) stably expressing the marmoset Type II GnRH receptor (designated αT4-II).
The ability of the four major agents under study at activating ectopically expressed Type I or Type II GnRHR were tested (FIG. 12). The classical signal transduction cascade activated by GnRHR stimulation is the Gαq-PLC-β cascade. Both Type I and II receptor can stimulate the Gαq-PLC type-G-protein and activate PLC-β which cleaves phosphatidylinositol bisphosphate (PIP2) into inositol trisphosphate (IP3), other lower inositol phosphates (IPn) and diacylglycerol (DAG). The major function of IP3 is to elevate intracellular Ca^2+ while DAG causes the activation of specific PKC (protein kinase C) isoforms.
Panels a and b of FIG. 12 depict the generation of free cytoplasmic ^3H-myo-inositols on the plasma membranes of HEK293 cells expressing the Type I GnRHR and of αT4 gonadotropes expressing the marmoset Type II GnRHR. Prior to agonist stimulation the respective cells were incubated in inositol-free growth media supplemented with 1 μCi/ml ^3H-myoinositol for 48 h. G protein coupled receptor (GPCR)-induced activation of PLC-β results in the cleavage of PIP2 (incorporating tritium ^3H) into free lower inositol phosphates (IPns).

Row | Molecule | activation (phosphorylation) of myc-p38α (p38α) | effect of PTX pre-exposure on p38α activation (p38α) | anti-proliferative effect (viable cell number) [1] | FSK-stimulated intracellular cAMP accumulation after ligand pre-exposure (Gαi-type G protein) | effect of PTX on ligand-mediated inhibition of FSK-stimulated cAMP accumulation (Gαi-type G protein) | agonistic activity: liberated inositol phosphates at Type I GnRH receptor (Type I GnRH receptor) | agonistic activity: liberated inositol phosphates at Type I GnRH receptor (Type I GnRH receptor; listed as 135-25) | agonistic activity: liberated inositol phosphates at Type I GnRH receptor (Type I GnRH receptor; listed as Ant135-25) | agonistic activity: liberated inositol phosphates at Type I GnRH receptor (Type I GnRH receptor; listed as antagonist 135-25) | activation (phosphorylation) of myc-p38α (p38α; listed as Ant135-18) | anti-proliferative effect (viable cell number) ([1]; listed as Ant135-18) | agonistic activity: liberated inositol phosphates at Type I GnRH receptor (Type I GnRH receptor; listed as 135-18) | agonistic activity: liberated inositol phosphates at Type I GnRH receptor (Type I GnRH receptor; listed as Ant135-18) | effect on GnRH-mediated activation of p38α (p38α)
1 | Ac-D-Nal(2)-D-4-ClPhe-D-Pal-Ser-1-MePal-D-IsopropylLys-Leu-IsopropylLys-Pro-D-AlaNH2 [Ant 135-25] | effectively activate p38α | acutely sensitive to the pre-exposure of PTX | anti-proliferative effect upon BPH-1 cells with a similar potency to that of GnRH I | significantly reduced; also recorded: blunted | can be specifically inhibited with a 16 h pre-incubation of the cells with 200 ng/ml of PTX; also recorded: attenuated by a 16 h pre-treatment with 200 ng/ml PTX | no classical agonistic activity is demonstrated | no IPn-generating capacity | demonstrate no partial agonistic activity | failed to generate significant free inositol phosphate | – | – | – | – | –
2 | GnRH I: Gonadotropin-Releasing Hormone, a decapeptide; the original form of GnRH, re-named GnRH I | significant activation of myc-p38α; also recorded: effectively activate p38α; also recorded: protracted activation of the immunoprecipitated myc-p38α | acutely sensitive to the pre-exposure of PTX | potent and dose-dependent anti-proliferative effect; also recorded: more potent that GnRH II in its capacity to arrest cell growth | significantly reduced; also recorded: blunted | can be specifically inhibited with a 16 h pre-incubation of the cells with 200 ng/ml of PTX; also recorded: attenuated by a 16 h pre-treatment with 200 ng/ml PTX | yields an increase in free tritiated inositol phosphates; also recorded: significant increase in liberated inositol phosphates | – | – | – | – | – | – | – | –
3 | Ac-D-Nal(2)-D-4-ClPhe-D-Pal-Ser-Ile-D-IsopropylLys-Leu-IsopropylLys-Pro-D -AlaNH2 [Ant 135-18] | does not | – | much lower potency and efficacy compared to Ant 135-25 and GnRH I | – | – | little classical agonistic capacity | – | – | – | dramatically lower efficacy than GnRH I or Ant 135-25 | low ant-proliferative potency | no activation of the PLC-β signal at the Type I receptor evident | demonstrate no partial agonistic activity | –
4 | C[S+]([O-])c1ccc(-c2nc(-c3ccncc3)c(-c3ccc(F)cc3)[nH]2)cc1 (centres unmarked) [SB203580] | – | – | – | – | – | – | – | – | – | – | – | – | – | significantly blunted the GnRH-mediated activation of p38α
